What is called EC50 is the concentration at which the effect is half-maximal.

Residue numbers refer to the chain shown, from its start. Ends that are not written are not given here.

Common to all, as to format: cell-based
Experiment [1] concerns the target T1, GALR3 single mutant F^265P (Homo sapiens, UniProt O60755).
T1 construct: expressed in transfected cells; host or cells: HEK293 cells stably expressing Gqi
The experiment in a line: SRE-luc luciferase assay, GALR3 F265P. To be noted: GALR3 F^265P; SRE-luc in HEK293 Gqi cells, ligand 6 h; mean ± S.E.; SEM. The source says: (§1) For domain swapping between GALR2 and GALR3, individual cDNA fragments of interest were amplified by polymerase chain reaction (PCR) with Pfu polymerase (ELPIS Biotech, Daejeon, Korea) and two specific primers, one corresponding to the 5' or 3' end of the GALR2 or GALR3 cDNA and the other to the region of overlap between the two receptors. The two resulting fragments, one from GALR2 and the other from GALR3, were subjected to a second round of PCR to generate the chimeric cDNAs. To construct single, double-, triple-, pentuple-, hextuple-, and septuple-mutant receptors, amino acids of GALR3 were substituted for the amino acids at the corresponding positions in GALR2 using PCR-based site-directed mutagenesis. All of the chimeric constructs were cloned into the pcDNA3 expression vector at HindⅢ and XbaⅠ sites. The DNA sequences of the chimeras were verified by automatic sequencing. […] The luciferase activity in 50 μl cell extract was determined using a luciferase assay system according to the standard protocol for the Synergy 2 Multi-Mode Microplate Reader (BioTek, Winooski, VT, USA). […] The concentrations of agonists that induced half-maximal stimulation (EC50) were calculated using the GraphPad PRISM5 software (GraphPad software, Inc., San Diego, CA). […]

Experiment [2] has as its target T2, GALR3 single mutant A^264P (Homo sapiens, UniProt O60755, A264P).
T2 construct: expressed in transfected cells; host or cells: HEK293 cells stably expressing Gqi
In words: SRE-luc luciferase assay, GALR3 A264P. The conditions noted are these: GALR3 A^264P; SRE-luc in HEK293 Gqi cells, ligand 6 h; mean ± S.E.; SEM.
Description: as §1

The target in experiment [3] is T3, GALR3 single mutant C^272L (Homo sapiens, UniProt O60755, C272L).
T3 construct: expressed in transfected cells; host or cells: HEK293 cells stably expressing Gqi
The experiment in a line: SRE-luc luciferase assay, GALR3 C272L. The conditions noted are these: GALR3 C^272L; SRE-luc in HEK293 Gqi cells, ligand 6 h; mean ± S.E.; SEM.
Description: as §1

For experiment [4], the target named is T4, GALR3 single mutant S^266T (Homo sapiens, UniProt O60755, S266T).
T4 construct: expressed in transfected cells; host or cells: HEK293 cells stably expressing Gqi
The experiment in a line: SRE-luc luciferase assay, GALR3 S266T. To be noted: GALR3 S^266T; SRE-luc in HEK293 Gqi cells, ligand 6 h; mean ± S.E.; SEM.
Description: as §1

In experiment [5] the target is T5, human GALR2 (Homo sapiens, UniProt O43603).
T5 construct: host or cells: HEK293 cells stably expressing Gqi
T5 sequence (O43603 1-387): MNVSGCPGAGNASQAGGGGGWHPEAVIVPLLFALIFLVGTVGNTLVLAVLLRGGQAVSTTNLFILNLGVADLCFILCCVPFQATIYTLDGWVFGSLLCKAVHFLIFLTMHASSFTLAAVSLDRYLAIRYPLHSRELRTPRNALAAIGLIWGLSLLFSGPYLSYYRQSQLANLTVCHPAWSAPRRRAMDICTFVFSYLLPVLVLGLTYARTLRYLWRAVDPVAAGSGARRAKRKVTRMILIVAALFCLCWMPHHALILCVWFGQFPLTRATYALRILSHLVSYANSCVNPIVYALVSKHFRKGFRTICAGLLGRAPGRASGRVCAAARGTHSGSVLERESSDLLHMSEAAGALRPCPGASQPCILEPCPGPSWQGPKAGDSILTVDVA
In words: SRE-luc luciferase assay, WT GALR2. The conditions noted are these: SRE-luc in HEK293 Gqi cells, ligand 6 h, mean ± SE, at least three independent experiments, SEM. The source says: (§2) The pcDNA3.1 vector was purchased from Invitrogen (San Diego, CA, USA). The serum response element (SRE)-luciferase (SRE-luc) vector containing a single copy of the SRE (CCATATTAGG) conjugated with luciferase was purchased from Stratagene (La Jolla, CA, USA). The cDNAs for human GALR1, GALR2, and GALR3 were obtained from BRN SCIENCE, Inc. The cDNAs were inserted into the EcoRⅠ and XhoⅠ sites of pcDNA3.1.
(§3) HEK293 cells stably expressing the Gqi construct, which allows induction of Gq-dependent signaling pathways upon activation of a Gi-coupled receptor [14, 30], were maintained in Dulbecco's Modified Eagle's Medium (DMEM) in the presence of 10% fetal bovine serum and 1% penicillin and streptomycin. For all transfections, 200 ng DNA (100 ng receptor and 100 ng SRE-luc) mixed with lipofectamine 2000 was applied to 60–80% confluent cells on a multi-well plate according to the manufacturer's instructions (Invitrogen, Carlsbad, CA).
(§4) For luciferase assays, HEK293 Gqi cells were seeded on 48-well plates at a density of 2.5 × 10^4 cells/well one day before transfection. A mixture including 100 ng SRE-luc reporter construct, 100 ng expression plasmid, and lipofectamine 2000 reagent in diluted Opti-MEM (Gibco) was incubated at room temperature for 20 min and then added into each well according to the manufacturer's instructions (Invitrogen, CA, USA). Before exposure to the ligands, the cells were maintained in serum-free DMEM for 16–18 h. Approximately 48 h after transfection, the cells were treated with ligand for 6 h. The cells were then lysed by the addition of 100 μl lysis buffer. The luciferase activity in 50 μl cell extract was determined using a luciferase assay system according to the standard protocol for the Synergy 2 Multi-Mode Microplate Reader (BioTek, Winooski, VT, USA).
(§5) Data analysis was performed by non-linear regression with a sigmoidal dose-response curve. The concentrations of agonists that induced half-maximal stimulation (EC50) were calculated using the GraphPad PRISM5 software (GraphPad software, Inc., San Diego, CA). All data are presented as the mean ± standard error (SE) of at least three independent experiments.

In experiment [6] the target is T6, GALR3 single mutant P^267R (Homo sapiens, UniProt O60755, P267R).
T6 construct: expressed in transfected cells; host or cells: HEK293 cells stably expressing Gqi
In words: SRE-luc luciferase assay, GALR3 P267R. The conditions noted are these: GALR3 P^267R; SRE-luc in HEK293 Gqi cells, ligand 6 h; mean ± S.E.; SEM.
Description: as §1

Experiment [7] has as its target T7, GALR3 (Homo sapiens, UniProt O60755).
T7 sequence (O60755 1-368): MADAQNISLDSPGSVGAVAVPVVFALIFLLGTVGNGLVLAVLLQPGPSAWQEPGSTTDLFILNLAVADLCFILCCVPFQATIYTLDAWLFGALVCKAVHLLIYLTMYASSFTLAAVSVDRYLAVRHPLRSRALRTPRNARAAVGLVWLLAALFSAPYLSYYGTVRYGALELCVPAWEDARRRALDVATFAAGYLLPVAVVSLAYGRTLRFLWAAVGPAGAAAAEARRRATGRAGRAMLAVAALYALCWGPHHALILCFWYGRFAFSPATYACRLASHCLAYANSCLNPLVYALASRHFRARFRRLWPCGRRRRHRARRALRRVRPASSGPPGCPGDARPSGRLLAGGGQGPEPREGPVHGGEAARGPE
The experiment in a line: SRE-luc luciferase assay, WT GALR3. Also noted: host or cells: HEK293 cells stably expressing Gqi. To be noted: SRE-luc in HEK293 Gqi cells, ligand 6 h, mean ± SE, at least three independent experiments, SEM.
Description: as §2, §3, §4, §5

For experiment [8], the target named is T8, GALR3 septuple (Homo sapiens, UniProt O60755, A190V/A191F/C272L/G192S/L100F/Y103F/Y107H).
T8 construct: expressed in transfected cells; host or cells: HEK293 cells stably expressing pGlosensor-22F cAMP plasmid
T8 sequence (O60755 1-368 L100F/Y103F/Y107H/A190V/A191F/G192S/C272L): T7 sequence (O60755 1-368) with L100F, Y103F, Y107H, A190V, A191F, G192S, C272L
The experiment in a line: cAMP assay (inhibition of forskolin-induced cAMP), GALR3 septuple mutant. The conditions noted are these: Glosensor-22F cAMP HEK293 cells, agonist 10 min then forskolin 10 μM, mean ± SE, SEM. How it is done: SPX-induced or Qu-SPX-induced cyclic adenosine monophosphate (cAMP) mobilization was measured in HEK293 cells stably expressing the pGlosensor^TM-22F cAMP plasmid (Promega Corp., Madison, WI, USA). The Glosensor-22F cAMP HEK293 cells were seeded on 96-well plates at a density of 2.0 × 10^4 cells/well 24 h before transfection. A mixture including 100 ng expression plasmid and lipofectamine 2000 reagent in diluted Opti-MEM (Gibco) was incubated at room temperature for 20 min. The mixtures were added into each well according to the manufacturer's instructions (Invitrogen, CA, USA). After 48 h, Glosensor cAMP substrates were added to the transfected cells in CO2-independent media. After 2 h, the cells were incubated with a range of agonist concentrations or vehicle for 10 min and then exposed to foskolin (10 μM). Luminescence was measured for up to 30 min using a Microplate Reader (BioTek, Winooski, VT, USA).
Data analysis was performed by non-linear regression with a sigmoidal dose-response curve. The concentrations of agonists that induced half-maximal stimulation (EC50) were calculated using the GraphPad PRISM5 software (GraphPad software, Inc., San Diego, CA). All data are presented as the mean ± standard error (SE) of at least three independent experiments. […]
On the technique in general: Changes in cAMP serve as a functional read-out for many G protein-coupled receptors.

The target in experiment [9] is T8, GALR3 septuple. In words: SRE-luc luciferase assay, GALR3 septuple mutant. To be noted: SRE-luc in HEK293 Gqi cells, ligand 6 h, mean ± SE, SEM. An excerpt:
For domain swapping between GALR2 and GALR3, individual cDNA fragments of interest were amplified by polymerase chain reaction (PCR) with Pfu polymerase (ELPIS Biotech, Daejeon, Korea) and two specific primers, one corresponding to the 5' or 3' end of the GALR2 or GALR3 cDNA and the other to the region of overlap between the two receptors. The two resulting fragments, one from GALR2 and the other from GALR3, were subjected to a second round of PCR to generate the chimeric cDNAs. To construct single, double-, triple-, pentuple-, hextuple-, and septuple-mutant receptors, amino acids of GALR3 were substituted for the amino acids at the corresponding positions in GALR2 using PCR-based site-directed mutagenesis. […]
For luciferase assays, HEK293 Gqi cells were seeded on 48-well plates at a density of 2.5 × 10^4 cells/well one day before transfection. […] The luciferase activity in 50 μl cell extract was determined using a luciferase assay system according to the standard protocol for the Synergy 2 Multi-Mode Microplate Reader (BioTek, Winooski, VT, USA).
Data analysis was performed by non-linear regression with a sigmoidal dose-response curve. The concentrations of agonists that induced half-maximal stimulation (EC50) were calculated using the GraphPad PRISM5 software (GraphPad software, Inc., San Diego, CA). […]

T3 sequence (O60755 whole entry C272L): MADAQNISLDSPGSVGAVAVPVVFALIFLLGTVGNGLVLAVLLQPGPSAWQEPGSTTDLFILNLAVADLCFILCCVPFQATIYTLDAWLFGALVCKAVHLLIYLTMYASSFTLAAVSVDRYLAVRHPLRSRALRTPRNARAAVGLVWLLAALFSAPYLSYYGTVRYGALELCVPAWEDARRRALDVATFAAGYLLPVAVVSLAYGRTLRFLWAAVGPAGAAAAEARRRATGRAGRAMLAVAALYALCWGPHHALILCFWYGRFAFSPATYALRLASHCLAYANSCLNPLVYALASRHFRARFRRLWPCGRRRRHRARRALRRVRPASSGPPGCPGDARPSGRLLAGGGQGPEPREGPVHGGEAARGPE
T6 sequence (O60755 whole entry P267R): as the sequence (O60755 whole entry C272L) above, with P267R, L272C counted along it
T4 sequence (O60755 whole entry S266T): as the sequence (O60755 whole entry C272L) above, with S266T, L272C counted along it
T2 sequence (O60755 whole entry A264P): as the sequence (O60755 whole entry C272L) above, with A264P, L272C counted along it
T1 sequence (O60755 whole entry F265L): as the sequence (O60755 whole entry C272L) above, with F265L, L272C counted along it

On to NWTPQAMLYLFGAQ-NH2 [F^11-SPX], for which the EC50 in experiment [1] was 457 ± 118 nM; in [2] it was 589 ± 200 nM; in experiment [3], 66.1 ± 22.4 nM; in experiment [4], 200 ± 29.7 nM; in [5], 47.9 ± 11.5 nM; in experiment [6] it was 562 ± 173 nM. The half-maximal effective concentration (EC50) in [7] worked out at 490 ± 118 nM.

Take NWTPNAALYLFGPQ-NH2 [Qu-SPX]: the concentration for a half-maximal effect (EC50) in [5] was 87.1 ± 19.5 nM; in experiment [8] it was 794 ± 358 nM; in [9], 1100 ± 163 nM.

The values above are taken from PMC7108740, “Exploring the molecular structures that confer ligand selectivity for galanin type II and III receptors” (PLoS ONE, 2020).
